According to patent publication US20080004270A1, “3,4-Disubstituted Pyrazoles as Cyclin Dependent Kinases (Cdk) or Aurora Kinase or Glycogen Synthase 3 (Gsk-3) Inhibitors” (ASTEX THERAPEUTICS LIMITED, priority 2004, published 2008):

Tests used:
[1] = target: Activated CDK2/CyclinA (Homo sapiens, UniProt P24941); assay: Activated CDK2/CyclinA kinase inhibitory activity assay; format: biochemical; conditions: histone H1 substrate, γ33P-ATP filter assay; read-out: IC50 against CDK2 activity
Description: Compounds of the invention were tested for kinase inhibitory activity using the following protocol.
(§1) Activated CDK2/CyclinA (Brown et al, Nat. Cell Biol., 1, pp 438-443, 1999; Lowe, E. D., et al Biochemistry, 41, pp 15625-15634, 2002) is diluted to 125 pM in 2.5× strength assay buffer (50 mM MOPS pH 7.2, 62.5 mM β-glycerophosphate, 12.5 mM EDTA, 37.5 mM MgCl2, […], 2.5 mM DTT, 2.5 mM sodium orthovanadate, 0.25 mg/ml bovine serum albumin), and 10 μl mixed with 10 μl of histone substrate mix (60 μl bovine histone H1 (Upstate Biotechnology, 5 mg/ml), 940 μl H2O, 35 μCi γ^33P-ATP) and added to 96 well plates along with 5 μl of various dilutions of the test compound in DMSO (up to 2.5%). The reaction is allowed to proceed for 2 to 4 hours before being stopped with an excess of ortho-phosphoric acid (5 μl at 2%).
(§2) γ^33P-ATP which remains unincorporated into the histone H1 is separated from phosphorylated histone H1 on a Millipore MAPH filter plate. The wells of the MAPH plate are wetted with 0.5% orthophosphoric acid, and then the results of the reaction are filtered with a Millipore vacuum filtration unit through the wells. Following filtration, the residue is washed twice with 200 μl of 0.5% orthophosphoric acid. Once the filters have dried, 20 μl of Microscint 20 scintillant is added, and then counted on a Packard Topcount for 30 seconds.
(§3) The % inhibition of the CDK2 activity is calculated and plotted in order to determine the concentration of test compound required to inhibit 50% of the CDK2 activity (IC50).

[2] = target: T1, CDK1/CyclinB (Homo sapiens, UniProt P06493); assay: Activated CDK1/CyclinB kinase inhibitory activity assay; format: biochemical; conditions: histone H1 substrate, γ33P-ATP filter assay; read-out: IC50 against CDK1 activity
T1 construct: purchased Upstate Discovery
T1 sequence (P06493 whole entry): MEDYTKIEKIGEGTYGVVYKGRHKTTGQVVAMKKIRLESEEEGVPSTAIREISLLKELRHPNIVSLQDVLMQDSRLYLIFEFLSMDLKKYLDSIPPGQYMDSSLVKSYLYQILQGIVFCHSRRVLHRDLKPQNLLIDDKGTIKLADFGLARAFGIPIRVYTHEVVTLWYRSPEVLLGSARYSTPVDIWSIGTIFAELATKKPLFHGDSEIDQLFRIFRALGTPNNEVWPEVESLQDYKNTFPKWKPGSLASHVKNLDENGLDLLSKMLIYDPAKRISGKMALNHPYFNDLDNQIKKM
T1 sequence (P14635 whole entry partner): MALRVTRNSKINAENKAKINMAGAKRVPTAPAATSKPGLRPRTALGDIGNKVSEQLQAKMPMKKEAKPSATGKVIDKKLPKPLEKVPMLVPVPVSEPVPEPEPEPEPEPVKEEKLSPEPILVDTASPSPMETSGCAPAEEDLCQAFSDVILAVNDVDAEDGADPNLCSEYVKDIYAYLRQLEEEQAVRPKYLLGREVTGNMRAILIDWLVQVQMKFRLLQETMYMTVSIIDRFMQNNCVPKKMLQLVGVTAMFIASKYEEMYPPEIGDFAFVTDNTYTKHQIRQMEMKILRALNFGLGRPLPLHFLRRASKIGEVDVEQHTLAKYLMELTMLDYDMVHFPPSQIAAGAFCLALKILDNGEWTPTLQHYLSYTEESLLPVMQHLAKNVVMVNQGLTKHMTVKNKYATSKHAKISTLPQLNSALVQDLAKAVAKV
Description: as §1, §2, §3
CDK1/CyclinB assay is identical to the CDK2/CyclinA above except that CDK1/CyclinB (Upstate Discovery) is used and the enzyme is diluted to 6.25 nM.

Row | IC50 [1] [µM] | IC50 [2] [µM] | Compound
1 | < 1 | < 1 | O=C(Nc1c[nH]nc1-c1nc2cc[nH]c(=O)c2[nH]1)c1c(F)cccc1F [Example 1, 2,6-difluoro-N-[3-(4-oxo-4,5-dihydro-3H-imidazo[4,5-c]pyridin-2-yl)-1H-pyrazol-4-yl]-benzamide]
2 | < 1 | < 1 | O=C(Nc1c[nH]nc1-c1nc2c([nH]1)CCNC2)c1c(F)cccc1F [Example 4, 2,6-difluoro-N-[3-(4,5,6,7-tetrahydro-1H-imidazol[4,5-c]pyridin-2-yl)-1H-pyrazol-4-yl]-benzamide]
3 | < 1 | < 1 | CCN1CCc2[nH]c(-c3n[nH]cc3NC(=O)c3c(F)cccc3F)nc2C1 [Example 6, N-[3-(5-ethyl-4,5,6,7-tetrahydro-1H-imidazo[4,5-c]pyridine-2-yl)-1H-pyrazol-4-yl]-2,6-difluoro-benzamide]
4 | < 1 | < 1 | O=C(Nc1c[nH]nc1-c1nc2c([nH]1)CCN(CCF)C2)c1c(F)cccc1F [Example 7, 2,6-difluoro-N-{3-[5-(2-fluoro-ethyl)-4,5,6,7-tetrahydro-1H-imidazol[4,5-c]pyridine-2-yl]-1H-pyrazol-4-yl}-benzamide]
